Assay [1] deals with HEK293 cells. The experiment in a line: Preliminary screening as DNA vectors, GFP transfection of HEK293 cells. To be noted: HEK293 cells; lipid/DOPE liposome with 75 ng plasmid DNA (psin-EGFP-IRES-Puro); number of cells expressing GFP divided by total number of nuclei (Hoechst). It counts as cell-based. The method, boiled down: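 Lipid + DOPE liposomes (NaOAc, pH 5.6) complexed w/ 75 ng psin-EGFP-IRES-Puro, 30 min RT; added to 3-5×10^4 HEK293/well, 37° C. Hoechst 0.2 μg/mL at 20-24 h, imaged after further 20-24 h. Efficiency = GFP+ cells / total nuclei.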

The subject of assay [2] is HEK293 cells. The experiment in a line: Preliminary screening as mRNA vectors, EGFP mRNA transfection of HEK293 cells. It counts as cell-based. To be noted: HEK293 cells, 96-well plates, EGFP mRNA 50 ng per well; percentage of GFP fluorescent cells relative to total number of cells (Hoechst). The procedure, abridged: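 Each well of HEK293 cells received 50 ng of EGFP mRNA. Efficiency was expressed as percent GFP-expressing cells over Hoechst-defined total cell number.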

Take `CCCCCCCCCCCCCCCCCCNc1nc(NCCCCCCCCCCC)nc(NCCCN2CCN(C)CC2)n1` [Compound N11N18D9]: the “Absolute DNA transfection efficiency in HEK293 cells” value (shortened to “Absolute DNA transfection efficiency”) in the assay with HEK293 cells [1] turned out to be 0.0%. For the same compound, the “Absolute mRNA transfection efficiency in HEK293 cells” value (from here on “Absolute mRNA transfection efficiency”) in the assay on HEK293 cells [2] was determined as 1.7%.
For the compound `CCCCCCCCCCCCCCCCCCNc1nc(NCCCCCCCCCCC)nc(NCC2CCN(C)CC2)n1` [Compound N11N18D10], the “Absolute DNA transfection efficiency” value in the assay with HEK293 cells [1] was found to be 0.2%. In addition, the “Absolute mRNA transfection efficiency” value in the assay on HEK293 cells [2] was 1.6%.
The corresponding values for `CCCCCCCCCCCCNc1nc(NCCCCCCCCCCCC)nc(NCCN(C)C)n1` [Compound N12N12D1] are 0.1% and 0.2%.
In the case of `CCCCCCCCCCCCNc1nc(NCCCCCCCCCCCC)nc(NCCN2CCOCC2)n1` [Compound N12N12D2], in the assay on HEK293 cells [1], the “Absolute DNA transfection efficiency” value was 0.2%. For the same compound, in the assay on HEK293 cells [2], the “Absolute mRNA transfection efficiency” value came out at 1.0%.
Turning to `CCCCCCCCCCCCNc1nc(NCCCCCCCCCCCC)nc(NCCN2CCCC2)n1` [Compound N12N12D3], in the assay with HEK293 cells [1], the “Absolute DNA transfection efficiency” value came to 1.9%. The “Absolute mRNA transfection efficiency” value in the assay on HEK293 cells [2] stood at 3.8%.
For `CCCCCCCCCCCCNc1nc(NCCCCCCCCCCCC)nc(NCCN2CCCCC2)n1` [Compound N12N12D4], the “Absolute DNA transfection efficiency” value with HEK293 cells [1] is 0.4%. In addition, the “Absolute mRNA transfection efficiency” value with HEK293 cells [2] is 2.2%.
The corresponding values for `CCCCCCCCCCCCNc1nc(NCCCCCCCCCCCC)nc(NCCN2CCN(C)CC2)n1` [Compound N12N12D5] are 0.4% and 0.8%.
Consider `CCCCCCCCCCCCNc1nc(NCCCCCCCCCCCC)nc(NCCCN(C)C)n1` [Compound N12N12D6], for which the “Absolute DNA transfection efficiency” value with HEK293 cells [1] amounted to 0.3%. Moreover, the “Absolute mRNA transfection efficiency” value with HEK293 cells [2] is listed as 0.8%.
As to `CCCCCCCCCCCCNc1nc(NCCCCCCCCCCCC)nc(NCCN(CC)CC)n1` [Compound N12N12D7], the “Absolute DNA transfection efficiency” value with HEK293 cells [1] is listed as 0.1%. In the assay with HEK293 cells [2], the “Absolute mRNA transfection efficiency” value is recorded as 0.6%.
As to `CCCCCCCCCCCCNc1nc(NCCCCCCCCCCCC)nc(NCCCN2CCOCC2)n1` [Compound N12N12D8], the “Absolute DNA transfection efficiency” value in the assay on HEK293 cells [1] was 0.0%. For the same compound, the “Absolute mRNA transfection efficiency” value in the assay with HEK293 cells [2] is listed as 0.3%.
Consider `CCCCCCCCCCCCNc1nc(NCCCCCCCCCCCC)nc(NCCCN2CCN(C)CC2)n1` [Compound N12N12D9], for which the “Absolute DNA transfection efficiency” value in the assay on HEK293 cells [1] is 0.0%. For the same compound, the “Absolute mRNA transfection efficiency” value with HEK293 cells [2] was 1.5%.
Take `CCCCCCCCCCCCNc1nc(NCCCCCCCCCCCC)nc(NCC2CCN(C)CC2)n1` [Compound N12N12D10]: the “Absolute DNA transfection efficiency” value in the assay on HEK293 cells [1] was found to be 0.5%. Moreover, the “Absolute mRNA transfection efficiency” value in the assay on HEK293 cells [2] is on record as 0.6%.
Regarding `CCCCCCCCCCCCCNc1nc(NCCCCCCCCCCCC)nc(NCCN(C)C)n1` [Compound N12N13D1], the “Absolute DNA transfection efficiency” value in the assay with HEK293 cells [1] was 1.2%. For the same compound, the “Absolute mRNA transfection efficiency” value in the assay with HEK293 cells [2] is given as 1.6%.
In the case of `CCCCCCCCCCCCCNc1nc(NCCCCCCCCCCCC)nc(NCCN2CCOCC2)n1` [Compound N12N13D2], the “Absolute DNA transfection efficiency” value in the assay on HEK293 cells [1] was found to be 0.1%. In addition, in the assay on HEK293 cells [2], the “Absolute mRNA transfection efficiency” value is 0.0%.
`CCCCCCCCCCCCCNc1nc(NCCCCCCCCCCCC)nc(NCCN2CCCC2)n1` [Compound N12N13D3]: the “Absolute DNA transfection efficiency” value in the assay on HEK293 cells [1] is reported as 1.7%. For the same compound, the “Absolute mRNA transfection efficiency” value in the assay on HEK293 cells [2] came to 3.1%.
As for `CCCCCCCCCCCCCNc1nc(NCCCCCCCCCCCC)nc(NCCN2CCCCC2)n1` [Compound N12N13D4], the “Absolute DNA transfection efficiency” value in the assay with HEK293 cells [1] is reported as 0.0%. Moreover, in the assay with HEK293 cells [2], the “Absolute mRNA transfection efficiency” value is recorded as 0.0%.
On to `CCCCCCCCCCCCCNc1nc(NCCCCCCCCCCCC)nc(NCCN2CCN(C)CC2)n1` [Compound N12N13D5], for which the “Absolute DNA transfection efficiency” value with HEK293 cells [1] was found to be 0.3%. The “Absolute mRNA transfection efficiency” value in the assay on HEK293 cells [2] is given as 0.0%.
The corresponding values for `CCCCCCCCCCCCCNc1nc(NCCCCCCCCCCCC)nc(NCCCN(C)C)n1` [Compound N12N13D6] are 0.5% and 1.0%.

Source of the values: US20230123334A1, “AMINO LIPID COMPOUND, PREPARATION METHOD THEREFOR, AND APPLICATION THEREOF” (SHENZHEN SHENXIN BIOTECHNOLOGY CO., LTD., priority 2020, published 2023).
